# Target: T1, AlaRS R329H binding to GST-Nrp1 b1 (Homo sapiens, UniProt P49588, R329H)
# T1 construct: made in house; host or cells: E. coli BL21 (DE3), pET-21a for AlaRS
# T1 sequence (P49588 1-968 R329H): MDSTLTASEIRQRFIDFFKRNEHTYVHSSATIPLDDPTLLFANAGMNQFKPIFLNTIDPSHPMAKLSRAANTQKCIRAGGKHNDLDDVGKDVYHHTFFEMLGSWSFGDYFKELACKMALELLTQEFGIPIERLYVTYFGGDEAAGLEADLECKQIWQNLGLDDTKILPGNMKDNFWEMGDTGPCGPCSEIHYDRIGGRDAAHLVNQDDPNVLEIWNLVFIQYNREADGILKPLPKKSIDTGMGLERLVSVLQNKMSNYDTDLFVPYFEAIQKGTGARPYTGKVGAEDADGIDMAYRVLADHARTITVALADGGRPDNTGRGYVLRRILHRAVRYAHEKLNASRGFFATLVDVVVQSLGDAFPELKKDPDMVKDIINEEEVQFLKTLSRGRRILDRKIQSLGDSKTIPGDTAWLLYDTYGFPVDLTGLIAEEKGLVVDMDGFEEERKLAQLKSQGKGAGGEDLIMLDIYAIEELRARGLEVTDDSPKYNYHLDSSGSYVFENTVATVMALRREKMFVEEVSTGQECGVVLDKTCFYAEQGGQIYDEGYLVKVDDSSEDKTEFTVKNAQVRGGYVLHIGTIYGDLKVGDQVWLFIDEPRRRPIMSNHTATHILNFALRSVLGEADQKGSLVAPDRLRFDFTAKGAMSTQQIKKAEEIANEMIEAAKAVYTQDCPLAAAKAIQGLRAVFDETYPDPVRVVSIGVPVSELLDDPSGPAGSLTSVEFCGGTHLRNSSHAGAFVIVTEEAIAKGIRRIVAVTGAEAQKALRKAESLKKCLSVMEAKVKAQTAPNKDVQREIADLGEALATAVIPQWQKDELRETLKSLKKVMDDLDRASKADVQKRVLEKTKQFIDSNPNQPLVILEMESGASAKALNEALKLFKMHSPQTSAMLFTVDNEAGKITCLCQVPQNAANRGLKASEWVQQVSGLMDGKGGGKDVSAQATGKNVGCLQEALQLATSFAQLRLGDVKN
# Assay: GST pull down assay
# Conditions: 20 µM Tanshinone I, ImageJ, average of three repeats
compound,measurement,value
Cc1coc2c1C(=O)C(=O)c1c-2ccc2c(C)cccc12 [Tanshinone I],"Mean density band (R329H), relative quantification of AlaRS mutant pulled down",0.84

# — publication PMC11509018, “Evaluation of the Role of Tanshinone I in an In Vitro System of Charcot-Marie-Tooth Disease Type 2N” (International Journal of Molecular Sciences, 2024)
